In experiment [1] the target is T1, GDP-loaded KRAS (1-169) G12C, C51S, C80L, C118S (Homo sapiens, UniProt P01116, C118S/C51S/C80L/G12C).
T1 construct: GDP-loaded KRAS (1-169) G12C, C51S, C80L, C118S
Nature of the experiment: Mass Spectrometry Reactivity Assay (MSRA): covalent adduct of compound and KRAS G12C, Percent Modification. It is filed as binding. As to conditions: for MSRA (% modification) 10 μM 0.50 hr / MSRA (% modification) 10 μM 0.25 hr: 10 μM compound; for MSRA (% modification) 5.0 μM 0.25 hr / MSRA (% modification) 5.0 μM 0.017 hr: 5.0 μM compound. In a few lines:
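GDP-loaded KRAS(1-169) G12C/C51S/C80L/C118S at 5 μM in 25 mM Hepes pH 7.5, 200 mM NaCl, 5% glycerol incubated at RT with compound (typically 5 or 10 μM final, 1% DMSO). Quenched in formic acid at 1-60 min; intact-protein LC-TOF MS gives % modification = modified/(modified+unmodified).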

Experiment [2] deals with KRAS G12C (Homo sapiens, UniProt P01116, G12C). Nature of the experiment: Cell Activity Assay: accumulation of GDP-bound KRAS G12C in MIAPaCa-2 cells (Raf-1 RBD capture, MSD readout). It is filed as cell-based. The arrangement: endogenous in cells; host or cells: MIAPaCa-2. As to conditions: 6 hours, assay limit is 30.00. The essentials:
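MIAPaCa-2 cells exposed 6 h at 37 °C to 3-fold compound dilutions (0.3% DMSO final), then lysed. Active GTP-KRAS captured on Raf-1 RBD-coated plates, detected with anti-pan-Ras and SULFO-TAG secondary by MSD electrochemiluminescence. Signal normalized to DMSO and maximum inhibition; IC50 from 4-parameter fit.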

By IC50 is commonly meant the midpoint of a concentration-inhibition curve. Low values mean greater potency, high ones weaker potency.

`C=CC(=O)N1CCN(c2ncnc3c(Oc4c(C)c(C)cc5[nH]ncc45)nccc23)CC1` [Example 12A, 1-(4-{8-[(5,6-dimethyl-1H-indazol-4-yl)oxy]pyrido[3,4-d]pyrimidin-4-yl}piperazin-1-yl)prop-2-en-1-one]: in experiment [1], the “MSRA (% modification) 10 μM 0.50 hr” value is recorded as 38%. In experiment [2], this compound returned an IC50 of 2.95 µM.
`C=CC(=O)N1CCN(c2nc(Oc3cccnc3C3CC3)nc3c(Oc4c(Cl)c(F)cc5[nH]ncc45)nccc23)CC1` [Example 06I, 1-(4-{8-[(5-chloro-6-fluoro-1H-indazol-4-yl)oxy]-2-[(2-cyclo-propyl-pyridin-3-yl)oxy]pyrido [3,4-d]pyrimidin-4-yl}piperazin-1-yl)prop-2-en-1-one]: in experiment [1], the “MSRA (% modification) 5.0 μM 0.25 hr” value was determined as 74%. For the same compound, it took 0.02 µM to reach half-maximal inhibition in experiment [2] (IC50).
As to `C=CC(=O)N1CCN(c2ncnc3c(Oc4c(Cl)c(F)cc5[nH]ncc45)nc(N)cc23)CC1` [Example 41A, 1-(4-{6-amino-8-[(5-chloro-6-fluoro-1H-indazol-4-yl)oxy]pyrido[3,4-d]pyrimidin-4-yl}piperazin-1-yl)prop-2-en-1-one], the “MSRA (% modification) 10 μM 0.25 hr” value in experiment [1] is on record as 31%. This compound returned an IC50 in experiment [2] of 3.5 µM.
Regarding `C=CC(=O)N1CCN(c2nc(OC[C@H]3CCCN3C)nc3c(Oc4c(C)ccc5[nH]ncc45)cccc23)CC1` [Example 06E, 1-[4-(8-[(5-methyl-1H-indazol-4-yl)oxy]-2-{[(2R)-1-methylpyrrolidin-2-yl]methoxy}quinazolin-4-yl)piperazin-1-yl]prop-2-en-1-one], in experiment [1], the “MSRA (% modification) 5.0 μM 0.25 hr” value came to 35%, the “MSRA (% modification) 10 μM 0.25 hr” value came out at 70% and the “MSRA (% modification) 10 μM 0.50 hr” value was 75%. For the same compound, in experiment [2], the IC50 was 0.585 µM.
In the case of `C=CC(=O)N1CCN(c2nc(OC[C@@H]3C[C@@H](OC)CN3C)nc3c(Oc4c(Cl)c(F)cc5[nH]ncc45)nccc23)CC1` [Example 13H, 1-[4-(8-[(5-chloro-6-fluoro-1H-indazol-4-yl)oxy]-2-{[(2S,4R)-4-methoxy-1-methylpyrrolidin-2-yl]methoxy}pyrido[3,4-d]pyrimidin-4-yl)piperazin-1-yl]prop-2-en-1-one], in experiment [1], the “MSRA (% modification) 5.0 μM 0.25 hr” value was determined as 65% and the “MSRA (% modification) 10 μM 0.25 hr” value worked out at 83%. For the same compound, the IC50 in experiment [2] stood at 0.311 µM.
Consider `C=CC(=O)N1CCN(c2ncnc3c(Oc4c(F)c(C)c(F)c5[nH]ncc45)nccc23)CC1` [Example 16A, 1-(4-{8-[(5,7-difluoro-6-methyl-1H-indazol-4-yl)oxy]pyrido[3,4-d]pyrimidin-4-yl}piperazin-1-yl)prop-2-en-1-one], for which the “MSRA (% modification) 10 μM 0.50 hr” value in experiment [1] is 7%. In experiment [2], this compound showed an IC50 of 29.6 µM.
Regarding `C=CC(=O)N1CCN(c2nc(Oc3cccc4c3CCN(C)C4)nc3c(Oc4c(Cl)c(Cl)cc5[nH]ncc45)nccc23)CC1` [Example 50I, 1-(4-{8-[(5,6-dichloro-1H-indazol-4-yl)oxy]-2-[(2-methyl-1,2,3,4-tetrahydro-isoquinolin-5-yl)oxy]pyrido [3,4-d]pyrimidin-4-yl}piperazin-1-yl)prop-2-en-1-one], the “MSRA (% modification) 5.0 μM 0.017 hr” value in experiment [1] turned out to be 70%. For the same compound, in experiment [2], half-maximal inhibition (IC50) was put at 0.008 µM.
For the compound `C=CC(=O)N1CCN(c2nc(O[C@@H]3CN(C)C[C@H]3CC)nc3c(Oc4c(Cl)c(F)cc5[nH]ncc45)nccc23)CC1` (racemic) [Example 21I, rac-1-[4-(8-[(5-chloro-6-fluoro-1H-indazol-4-yl)oxy]-2-{[(3S,4R)-4-ethyl-1-methyl-pyrrolidin-3-yl]oxy}pyrido [3,4-d]pyrimidin-4-yl)piperazin-1-yl]prop-2-en-1-one], the “MSRA (% modification) 5.0 μM 0.017 hr” value in experiment [1] was 42%. Besides, the IC50 in experiment [2] is 0.094 µM.
Consider `C=CC(=O)N1CCN(c2nc(OC)nc3c(Oc4c(C)ccc5[nH]ncc45)nccc23)CC1` [Example 01B, 1-(4-{2-methoxy-8-[(5-methyl-1H-indazol-4-yl)oxy]pyrido[3,4-d]pyrimidin-4-yl}piperazin-1-yl)prop-2-en-1-one], for which the “MSRA (% modification) 10 μM 0.50 hr” value in experiment [1] is recorded as 12%. In experiment [2], this compound had a concentration for half-maximal inhibition (IC50) of 16.9 µM.
Take `C=CC(=O)N1CCN(c2nc(OC[C@@H]3C[C@@H](F)CN3C)nc3c(Oc4c(Cl)c(F)cc5[nH]ncc45)nc(Cl)cc23)CC1` [Example 16G, 1-[4-(6-chloro-8-[(5-chloro-6-fluoro-1H-indazol-4-yl)oxy]-2-{[(2S,4R)-4-fluoro-1-methylpyrrolidin-2-yl]methoxy}pyrido[3,4-d]pyrimidin-4-yl)piperazin-1-yl]prop-2-en-1-one]: the “MSRA (% modification) 10 μM 0.25 hr” value in experiment [1] is 14%. Moreover, the IC50 in experiment [2] was found to be 0.111 µM.
As for `C=CC(=O)N1CCN(c2nc(O[C@H]3Cc4nccn4C3)nc3c(Oc4c(C)ccc5[nH]ncc45)cccc23)CC1` [Example 08F, 1-(4-{2-[(6S)-6,7-dihydro-5H-pyrrolo[1,2-a]imidazol-6-yloxy]-8-[(5-methyl-1H-indazol-4-yl)oxy]quinazolin-4-yl}piperazin-1-yl)prop-2-en-1-one], in experiment [1], the “MSRA (% modification) 10 μM 0.25 hr” value is recorded as 58% and the “MSRA (% modification) 10 μM 0.50 hr” value was 72%. In experiment [2], this compound displayed an IC50 of 1.6 µM.
On to `C=CC(=O)N1CCN(c2ncnc3c(Oc4c(C)ccc5[nH]ncc45)nc(C#N)cc23)CC1` [Example 18A, 4-(4-acryloylpiperazin-1-yl)-8-[(5-methyl-1H-indazol-4-yl)oxy]pyrido[3,4-d]pyrimidine-6-carbonitrile], for which, in experiment [1], the “MSRA (% modification) 10 μM 0.50 hr” value worked out at 34%. This compound also showed an IC50 in experiment [2] of 6.45 µM.
In the case of `C=CC(=O)N1CCN(c2ncnc3c(Oc4c(Cl)ccc5[nH]ncc45)nccc23)CC1` [Example 06A, 1-(4-{8-[(5-chloro-1H-indazol-4-yl)oxy]pyrido[3,4-d]pyrimidin-4-yl}piperazin-1-yl)prop-2-en-1-one], the “MSRA (% modification) 10 μM 0.50 hr” value in experiment [1] came out at 26%. Besides, in experiment [2], half-maximal inhibition (IC50) was put at 6.75 µM.
In the case of `C=CC(=O)N1CCN(c2ncnc3c(Oc4c(Cl)c(F)cc5[nH]ncc45)cccc23)CC1` [Example 18C, 1-(4-{8-[(5-chloro-6-fluoro-1H-indazol-4-yl)oxy]quinazolin-4-yl}piperazin-1-yl)prop-2-en-1-one], in experiment [1], the “MSRA (% modification) 5.0 μM 0.25 hr” value was determined as 36% and the “MSRA (% modification) 10 μM 0.50 hr” value amounted to 50%. The midpoint of inhibition in experiment [2], the IC50, lay at 1.1 µM.
Turning to `C=CC(=O)N1CCN(c2ncnc3c(Oc4c(C)ccc5[nH]nc(Cl)c45)nccc23)CC1` [Example 16C, 1-(4-{8-[(3-chloro-5-methyl-1H-indazol-4-yl)oxy]pyrido[3,4-d]pyrimidin-4-yl}piperazin-1-yl)prop-2-en-1-one], the “MSRA (% modification) 10 μM 0.50 hr” value in experiment [1] came to 7%. Moreover, the IC50 in experiment [2] is 22.2 µM.
In the same order, the values of `C=CC(=O)N1CCN(c2ncnc3c(Oc4c(Cl)c(C)cc5[nH]ncc45)nc(Cl)cc23)CC1` [Example 15A, 1-(4-{6-chloro-8-[(5-chloro-6-methyl-1H-indazol-4-yl)oxy]pyrido[3,4-d]pyrimidin-4-yl}piperazin-1-yl)prop-2-en-1-one] are 67% and 0.468 µM.
As for `C=CC(=O)N1CCN(c2nc(O[C@@H]3CN(C(C)(C)C)C[C@H]3OC)nc3c(Oc4c(Cl)c(F)cc5[nH]ncc45)nccc23)CC1` [Example 52I, 1-[4-(2-{[(3R,4R)-1-tert-butyl-4-methoxy-pyrrolidin-3-yl]oxy}-8-[(5-chloro-6-fluoro-1H-indazol-4-yl)oxy]pyrido [3,4-d]pyrimidin-4-yl)piperazin-1-yl]prop-2-en-1-one], the “MSRA (% modification) 5.0 μM 0.017 hr” value in experiment [1] came out at 81%. Further, the IC50 in experiment [2] was 0.023 µM.

These data come from patent US10662204B2 (PFIZER INC., priority 2018, dated 2020).
